Reference: ChEMBL document CHEMBL1142199, “Caenorhabditis elegans as a model to determine fitness of antibiotic-resistant Salmonella enterica serovar typhimurium” (2007)
Converted amounts (≈) assume the structure as drawn. Blank lines part the entries; values can stand above or below the compound they belong to.

Experiments:
Format in all cases: functional, Salmonella enterica subsp. enterica serovar Typhimurium
[1] = tested on: Salmonella typhimurium; experiment: Antimicrobial activity against Salmonella enterica serovar Typhimurium DA8340 in Caenorhabditis elegans
[2] = tested on: Salmonella typhimurium; experiment: Antimicrobial activity against Salmonella enterica serovar Typhimurium DA8326 in Caenorhabditis elegans
[3] = tested on: Salmonella typhimurium; experiment: Antimicrobial activity against Salmonella enterica serovar Typhimurium DA8325 in Caenorhabditis elegans
[4] = tested on: Salmonella typhimurium; experiment: Antimicrobial activity against Salmonella enterica serovar Typhimurium JB393 in Caenorhabditis elegans
[5] = tested on: Salmonella typhimurium; experiment: Antimicrobial activity against Salmonella enterica serovar Typhimurium JB1855 in Caenorhabditis elegans
[6] = tested on: Salmonella typhimurium; experiment: Antimicrobial activity against Salmonella enterica serovar Typhimurium JB1850 in Caenorhabditis elegans
[7] = tested on: Salmonella typhimurium; experiment: Antimicrobial activity against Salmonella enterica serovar Typhimurium SMP973 in Caenorhabditis elegans
[8] = tested on: Salmonella typhimurium; experiment: Antimicrobial activity against Salmonella enterica serovar Typhimurium SMP972 in Caenorhabditis elegans
[9] = tested on: Salmonella typhimurium; experiment: Antimicrobial activity against Salmonella enterica serovar Typhimurium SMP816 in Caenorhabditis elegans
[10] = tested on: Salmonella typhimurium; experiment: Antimicrobial activity against Salmonella enterica serovar Typhimurium SMP807 in Caenorhabditis elegans
[11] = tested on: Salmonella typhimurium; experiment: Antimicrobial activity against Salmonella enterica serovar Typhimurium JB127 in Caenorhabditis elegans

Compound: CCn1cc(C(=O)O)c(=O)c2ccc(C)nc21 [NALIDIXIC ACID]
MIC [7]: > 256 µg/mL
MIC [8]: 64 µg/mL (≈ 276 µM)

Compound: CO[C@H]1/C=C/O[C@@]2(C)Oc3c(C)c(O)c4c(O)c(c(/C=N/N5CCN(C)CC5)c(O)c4c3C2=O)NC(=O)/C(C)=C\C=C\[C@H](C)[C@H](O)[C@@H](C)[C@@H](O)[C@@H](C)[C@H](OC(C)=O)[C@@H]1C [RIFAMPIN]
MIC [9]: > 256 µg/mL
MIC [10]: > 256 µg/mL

Compound: CN[C@@H]1[C@H](O[C@H]2[C@H](O[C@H]3[C@H](O)[C@@H](O)[C@H](N=C(N)N)[C@@H](O)[C@@H]3N=C(N)N)O[C@@H](C)[C@]2(O)C=O)O[C@@H](CO)[C@H](O)[C@H]1O [STREPTOMYCIN]
MIC [11]: > 1020 µg/mL

The remaining lines, values ahead:

MIC [1]: > 1020 µg/mL
MIC [2]: > 1020 µg/mL
MIC [3]: > 1020 µg/mL
Compound: CCCCC[C@H](CC(=O)NO)C(=O)N[C@H](C(=O)N1CCC[C@H]1CO)C(C)C [ACTINONIN]

MIC [4]: 2400 µg/mL (≈ 4640 µM)
Compound: CC(=O)O[C@H]1C[C@@]2(C)[C@@H](C[C@@H](O)[C@H]3[C@@]4(C)CC[C@@H](O)[C@@H](C)[C@@H]4CC[C@@]32C)/C1=C(\CCC=C(C)C)C(=O)O [FUSIDIC ACID]

MIC [5]: > 1020 µg/mL
MIC [6]: > 1020 µg/mL
Compound: C/C(=C\C(=O)OCCCCCCCCC(=O)O)C[C@@H]1OC[C@H](C[C@@H]2O[C@H]2[C@@H](C)[C@H](C)O)[C@@H](O)[C@H]1O [MUPIROCIN]
